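Here, GI50 denotes the concentration required for 50% inhibition of growth. At the TGI there is no net growth.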
What was measured:
Assay in all cases: DTP human tumour cell line panel, 384-well format
[1] = tested on: A498 renal
[2] = tested on: A549 NSCLC
[3] = tested on: BT-549 breast
[4] = tested on: CAKI-1 renal
[5] = tested on: CCRF-CEM leukemia
[6] = tested on: DU-145 prostate
[7] = tested on: EKVX NSCLC
[8] = tested on: HCC-2998 colon
[9] = tested on: HCT-15 colon
[10] = tested on: HL-60(TB) leukemia
[11] = tested on: HOP-62 NSCLC
[12] = tested on: HOP-92 NSCLC
[13] = tested on: HS 578T breast
[14] = tested on: HT29 colon
[15] = tested on: IGROV1 ovarian
[16] = tested on: K-562 leukemia
[17] = tested on: KM12 colon
[18] = tested on: M14 melanoma
[19] = tested on: MALME-3M melanoma
[20] = tested on: MDA-MB-468 breast
[21] = tested on: MOLT-4 leukemia
[22] = tested on: NCI-H23 lung
[23] = tested on: NCI-H322M lung
[24] = tested on: NCI-H522 lung
[25] = tested on: OVCAR-3 ovarian
[26] = tested on: OVCAR-4 ovarian
[27] = tested on: OVCAR-8 ovarian
[28] = tested on: PC-3 prostate
[29] = tested on: RPMI-8226 leukemia
[30] = tested on: RXF 393 renal
[31] = tested on: SF-268 CNS
[32] = tested on: SF-295 CNS
[33] = tested on: SF-539 CNS
[34] = tested on: SK-MEL-28 melanoma
[35] = tested on: SK-MEL-5 melanoma
[36] = tested on: SN12C renal
[37] = tested on: SNB-19 CNS
[38] = tested on: SNB-75 CNS
[39] = tested on: SW-620 colon
[40] = tested on: T-47D breast
[41] = tested on: U251 glioblastoma
[42] = tested on: UACC-257 melanoma
[43] = tested on: UACC-62 melanoma

## COc1cc(F)ccc1-c1cc(Nc2cc(CS(C)(=N)=O)ccn2)ncc1F (stereo unspecified)
[1]
  GI50: 0.027 µM
  TGI: > 100 µM
[2]
  GI50: 0.0429 µM
  TGI: > 100 µM
[3]
  GI50: 0.0262 µM
  TGI: 0.074 µM
[4]
  GI50: 0.0282 µM
  TGI: > 100 µM
[5]
  GI50: 0.0176 µM
  TGI: 0.0362 µM
[6]
  GI50: 0.0291 µM
  TGI: 0.0925 µM
[7]
  GI50: 0.0739 µM
  TGI: 0.498 µM
[8]
  GI50: 0.0379 µM
  TGI: 0.207 µM
[9]
  GI50: 0.0387 µM
  TGI: > 100 µM
[10]
  GI50: 0.0154 µM
  TGI: 0.0294 µM
[11]
  GI50: 0.0183 µM
  TGI: 0.0455 µM
[12]
  GI50: 0.0629 µM
  TGI: 46 µM
[13]
  GI50: 0.0155 µM
  TGI: 0.0416 µM
[14]
  GI50: 0.0651 µM
  TGI: 0.257 µM
[15]
  GI50: 0.0337 µM
  TGI: > 100 µM
[16]
  GI50: 0.136 µM
  TGI: 0.567 µM
[17]
  GI50: 0.0237 µM
  TGI: 0.0735 µM
[18]
  GI50: 0.0347 µM
  TGI: 0.157 µM
[19]
  GI50: 0.0503 µM
  TGI: 0.178 µM
[20]
  GI50: 0.0587 µM
  TGI: 0.193 µM
[21]
  GI50: 0.0273 µM
  TGI: 0.0891 µM
[22]
  GI50: 0.0304 µM
  TGI: 0.13 µM
[23]
  GI50: 0.0292 µM
  TGI: 0.134 µM
[24]
  GI50: 0.149 µM
  TGI: 0.385 µM
[25]
  GI50: 0.0242 µM
  TGI: 0.0801 µM
[26]
  GI50: 0.165 µM
  TGI: 0.889 µM
[27]
  GI50: 0.0305 µM
  TGI: 0.112 µM
[28]
  GI50: 0.0399 µM
  TGI: 0.25 µM
[29]
  GI50: 0.041 µM
  TGI: 0.138 µM
[30]
  GI50: 0.016 µM
  TGI: 0.0376 µM
[31]
  GI50: 0.0171 µM
  TGI: 0.0445 µM
[32]
  GI50: 0.0353 µM
  TGI: 0.18 µM
[33]
  GI50: 0.0263 µM
  TGI: 0.069 µM
[34]
  GI50: 0.0304 µM
  TGI: 0.167 µM
[35]
  GI50: 0.0283 µM
  TGI: 0.109 µM
[36]
  GI50: 0.0233 µM
  TGI: 0.121 µM
[37]
  GI50: 0.0446 µM
  TGI: > 100 µM
[38]
  GI50: 0.0509 µM
  TGI: 0.201 µM
[39]
  GI50: 0.0437 µM
  TGI: 0.475 µM
[40]
  GI50: 0.0462 µM
  TGI: > 100 µM
[41]
  GI50: 0.0433 µM
  TGI: > 100 µM
[42]
  GI50: 0.104 µM
  TGI: 0.251 µM
[43]
  GI50: 0.0171 µM
  TGI: 0.0492 µM

Source: PubChem BioAssay (NCI)
